From paper PMC5711933, “Intracellular biomass flocculation as a key mechanism of rapid bacterial killing by cationic, amphipathic antimicrobial peptides and peptoids” (Scientific Reports, 2017)
Where two headings read alike, the source gives them in different places. Marks after values point to notes of the source that are not given here. Non-standard residues stand in square brackets, D forms with d. Residues, ends and D or L forms follow the SMILES beside them. N(1S-Me-propyl)Gly = CC[C@H](C)NCC(=O)O; Nspe = C[C@H](NCC(=O)O)c1ccccc1; Nphe = O=C(O)CNCc1ccccc1; Nlys = NCCCCNCC(=O)O

What was measured:
E. coli ATCC 35218 [1] = test: Bacterial count by plating after treatment, before TEM sample preparation; assay type: cell-based; conditions: 1 hour in PBS pH 7.4, control 1 × 10^8 CFU/mL
Experimental: E. coli ATCC 35218, grown overnight at 35 °C in Mueller-Hinton broth (MHB), were resuspended in 1X (150 mM) PBS, pH 7.4, and diluted to a concentration of 1 × 10^8 CFU/mL. Aqueous peptide/peptoid stock solutions were added to 1 mL aliquots of the suspension to the desired final concentration. After 1 hour, small volumes of each sample were serially diluted, plated, and incubated overnight at 35 °C, to be counted the following day. The remaining volume of each sample was centrifuged, and the pellet resuspended and enrobed in 5–10 µL of 2% low-melting agarose (gelling temperature 25° ± 5 °C) then drawn up into the tip of a Pasteur pipette. The solidified rods were extruded into fixative (2% glutaraldehyde, 2% paraformaldehyde, 50 mM PBS, pH 7.4). […] 50 nm thin sections of embedded samples were cut using a diamond knife, stained for 5 min in 5% aqueous uranyl acetate, then rinsed in H2O. Sections were examined in a JEOL 1230 TEM. Experimental conditions were each repeated in at least two independent trials. For each replicate of each sample, bacteria across the thin section were first surveyed to determine morphological characteristics representative of that sample, then images were captured of at least five bacteria displaying those morphologies with an emphasis on clean (i.e., orthogonal) transverse and/or longitudinal sections. Each image shown is thus representative of the ultrastructural characteristics observed in bacteria throughout a given sample and between replicates.

[2] = test system: Bioluminescent P. aeruginosa; assay type: cell-based, Pseudomonas aeruginosa; conditions: 12.5 µM, LB, 37 °C; for Activity in bioluminescence kinetics assay (in words): up to 2 h
Experimental: The decrease in bioluminescence at 37 °C was measured for a range of concentrations from 0 – 100 μM (Supp. Figs. S6 and S7).
Bioluminescent P. aeruginosa [73] was grown at 37 °C in Luria-Bertani (LB) broth. […] In a 96-well plate, 50 µL of P. aeruginosa solution (1 × 10^6 CFU/mL) was added to 50 µL of antimicrobial solution, and the bioluminescence was measured using an IVIS imaging system (a Xenogen product from Caliper Life Sciences, Hopkinton, MA) at 10 min intervals for 2 h. The reported values are the average of three independent experiments with two replicates each.

[3] = RP-HPLC elution (% ACN) as measure of hydrophobicity; assay type: physicochemical; conditions: chromatographic hydrophobicity; gradient of 5–95% acetonitrile (ACN) over 45 minutes, C18 column, 0.2 mL/min; average of three replicates
EGFP-Luc plasmid = test: DNA retardation assay (gel electrophoresis); assay type: binding; conditions: EGFP-Luc plasmid in TBS, complexes 20 min at room temperature, 1–2% agarose gel
Experimental: DNA retardation was analyzed by gel electrophoresis. Peptoid/peptide-DNA complexes were formed by adding 10 µL of peptide/peptoid solution of varying concentrations to 10 µL DNA solution (EGFP-Luc plasmid in Tris-buffered saline (TBS) buffer), and the resulting solution was mixed by gentle aspiration. Complexes were incubated for 20 min at room temperature. After complex formation, 20 µL of each sample were loaded onto a 1–2% agarose gel in Tris/borate/EDTA (TBE) buffer, which ran at 120 V for 15 min. DNA bands on the gel were visualized under UV light by ethidium bromide staining.

P. aeruginosa = test: Bacterial plating of P. aeruginosa (CFU); assay type: cell-based, Pseudomonas aeruginosa; conditions: 12.5 µM, LB, 37 °C, average of three replicates
Experimental: To further explore the mechanism of action, we studied the killing kinetics of AMPs, ampetoids, and conventional antibiotics against luciferase-expressing Pseudomonas aeruginosa, another Gram-negative bacterium, against which these peptoids have previously proven to be effective[61]. The decrease in bioluminescence at 37 °C was measured for a range of concentrations from 0 – 100 μM (Supp. Figs. S6 and S7).
The bacterial counts were determined by plating serial dilutions of samples on LB plates and counting bacterial colonies. The reported values are the average of three replicates.

[4] = test system: E. coli bacterial ribosomes; test: Aggregation of bacterial ribosomes (optical density at 550 nm); assay type: biochemical; conditions: 1 µM ribosome solution, antimicrobial up to 800 µM, 10 min, λ = 550 nm
Experimental: In a microcentrifuge tube, 5 µl of 1 µM purified bacterial ribosome solution (~40X diluted (v/v) from their intracellular concentration in bacterial cytosol)[62] was incubated with 5 µl of antimicrobial solution in a concentration range of 0–800 µM for 10 min. The absorbance of the solution was measured by UV-Vis spectroscopy at λ = 550 nm by a spectrophotometer (ND-1000, Thermo Scientific, Wilmington, DE). The values are reported as the average of three independent experiments with three replicates each.

Erythrocytes = test: Hemolysis assay; assay type: cell-based; conditions: human erythrocytes in PBS pH 7.4, 1 h at 37 °C, A350; three independent replicates (two for LL-37 and fowlicidin-1)
Experimental: The plate was then centrifuged at 1200 g for 15 min, 100 μL of the supernatant from each well transferred to a fresh microtiter plate, and A350 measured.

E. coli ATCC 35218 [5] = assay type: cell-based; conditions: CAMHB, 35 °C, 16 h, final 5 × 10^5 CFU/mL, reproducible between three independent replicates
Experimental: MICs were determined according to CLSI M7-A6 protocols in a 96-well microtiter plate. In test wells, 50 μL bacterial inoculum (1 × 10^6 CFU/ml) in cation-adjusted Mueller-Hinton broth (CAMHB) was added to 50 μL peptoid solution in CAMHB (prepared by 1:2 serial dilutions). Positive controls contained 50 μL inoculum and 50 μL CAMHB without peptoid. […] MIC values reported were reproducible between three independent experimental replicates, each consisting of two parallel trials.

E. coli ATCC 35218 [6] = test: Bacterial count by plating after 1-hour treatment, before SEM sample preparation; assay type: cell-based; conditions: 1 hour in PBS, control 5 × 10^5 CFU/mL
Experimental: E. coli was treated with 10 μM peptide or peptoid for 1 hour in phosphate-buffered saline (PBS). […] We used 10 μM peptide/peptoid for all samples since it is near the MICs of the majority of the oligomers.
Before fixation, aliquots of each samples were serially diluted and plated on agar to determine the concentration of live bacteria remaining after the 1-hour treatment. […] (1) SEM samples were treated in PBS (as discussed above), whereas MIC assays are performed in cation-adjusted Mueller-Hinton broth. AMPs and ampetoids are known to interact with ions in the media (for example, when switching from plain Mueller-Hinton broth to cation-adjusted Mueller-Hinton broth)[1], so differences in activity may be due to changes in media composition. (2) the treatments were for one hour only, whereas MICs are determined after 16 hours of growth. […] (3) Some of these compounds may cause inhibition of growth without causing bacterial cell death (i.e., they are bacteriostatic—which is what the MIC indicates—rather than bactericidal—which is determined by plating and counting colonies). […]
Overnight cultures of E. coli ATCC 35218 were centrifuged for 10 min and 2500 × g at room temperature, then resuspended in PBS. […] Bacterial concentrations of the diluted suspensions were calculated from their OD590 values using optical density curves derived from pre-determined concentrations. […]

[7] = average of three independent experiments with two replicates each

Row | Compound | TEM: Bacterial count after 10 µM treatment (% of control) (E. coli ATCC 35218 [1]) | TEM: Bacterial count after 100 µM treatment (% of control) (E. coli ATCC 35218 [1]) | % ACN at RP-HPLC elution [3] | Retardation assay: mass of compound required to completely retard migration of 1 µg of DNA (EGFP-Luc plasmid) | Killing of bacteria within 10 minutes (CFU plating, in words) (P. aeruginosa) | Aggregation of ribosomes (in words) [4] | further results
1 | NCCCCNCC(=O)N(CC(=O)N(CC(=O)N(CCCCN)CC(=O)N(CC(=O)N(CC(=O)N(CCCCN)CC(=O)N(CC(=O)N(CC(=O)N(CCCCN)CC(=O)N(CC(=O)N(CC(N)=O)Cc1ccccc1)Cc1ccccc1)Cc1ccccc1)Cc1ccccc1)Cc1ccccc1)Cc1ccccc1)Cc1ccccc1)Cc1ccccc1 [1 achiral] (H-[Nlys][Nphe][Nphe][Nlys][Nphe][Nphe][Nlys][Nphe][Nphe][Nlys][Nphe][Nphe]-NH2) | 100 % of control | 0.03 % of control | 60.4% | 1.5 µg | – | – | Decrease in bioluminescence within 10 min ([2]; 10 min, average of three independent experiments with two replicates each): ~ 99.9%
2 | C[C@@H](c1ccccc1)N(CC(N)=O)C(=O)CN(CCCCN)C(=O)CN(CCCCN)C(=O)CN(C(=O)CN(C(=O)CN(CCCCN)C(=O)CN(C(=O)CN(CCCCN)C(=O)CN(CCCCN)C(=O)CN(C(=O)CN(C(=O)CNCCCCN)[C@@H](C)c1ccccc1)[C@@H](C)c1ccccc1)[C@@H](C)c1ccccc1)[C@@H](C)c1ccccc1)[C@@H](C)c1ccccc1 [1-NLys5,11] (H-[Nlys][Nspe][Nspe][Nlys][Nlys][Nspe][Nlys][Nspe][Nspe][Nlys][Nlys][Nspe]-NH2; N-terminus and C-terminus assumed) | 100 % of control | 30 % of control | 51.2% | 1.0 µg | – | – | –
3 | C[C@@H](c1ccccc1)N(CC(N)=O)C(=O)CN(C(=O)CN(CCCCN)C(=O)[C@@H]1CCCN1C(=O)CN(C(=O)CN(CCCCN)C(=O)CN(C(=O)CN(C(=O)CN(CCCCN)C(=O)CN(C(=O)CN(C(=O)CNCCCCN)[C@@H](C)c1ccccc1)[C@@H](C)c1ccccc1)[C@@H](C)c1ccccc1)[C@@H](C)c1ccccc1)[C@@H](C)c1ccccc1)[C@@H](C)c1ccccc1 [1-Pro9] (H-[Nlys][Nspe][Nspe][Nlys][Nspe][Nspe][Nlys][Nspe]P[Nlys][Nspe][Nspe]-NH2) | – | – | 62.6% | – | – | – | Decrease in bioluminescence at 2 h [2, 7]: ~ 20%
4 | O=C(O)c1cn(C2CC2)c2cc(N3CCNCC3)c(F)cc2c1=O [Ciprofloxacin] | – | – | – | – | did not kill bacteria | no aggregation | Decrease in bioluminescence at 1 h ([2]; 1 h, average of three independent experiments with two replicates each): ~ 97%
5 | CC[C@H](C)[C@H](NC(=O)[C@H](CCCCN)NC(=O)[C@H](CCC(=O)O)NC(=O)[C@H](CCCCN)NC(=O)[C@H](CO)NC(=O)[C@H](CCCCN)NC(=O)[C@H](CCCNC(=N)N)NC(=O)[C@H](Cc1ccccc1)NC(=O)[C@H](Cc1ccccc1)NC(=O)[C@H](CC(=O)O)NC(=O)CNC(=O)[C@H](CC(C)C)NC(=O)[C@@H](N)CC(C)C)C(=O)NCC(=O)N[C@@H](CCCCN)C(=O)N[C@@H](CCC(=O)O)C(=O)N[C@@H](Cc1ccccc1)C(=O)N[C@@H](CCCCN)C(=O)N[C@@H](CCCNC(=N)N)C(=O)N[C@H](C(=O)N[C@H](C(=O)N[C@@H](CCC(N)=O)C(=O)N[C@@H](CCCNC(=N)N)C(=O)N[C@H](C(=O)N[C@@H](CCCCN)C(=O)N[C@@H](CC(=O)O)C(=O)N[C@@H](Cc1ccccc1)C(=O)N[C@@H](CC(C)C)C(=O)N[C@@H](CCCNC(=N)N)C(=O)N[C@@H](CC(N)=O)C(=O)N[C@@H](CC(C)C)C(=O)N[C@H](C(=O)N1CCC[C@H]1C(=O)N[C@@H](CCCNC(=N)N)C(=O)N[C@H](C(=O)N[C@@H](CCC(=O)O)C(=O)N[C@@H](CO)C(=O)O)[C@@H](C)O)C(C)C)[C@@H](C)CC)C(C)C)[C@@H](C)CC [LL-37, reference compound] | – | – | – | – | – | – | HD10 (hemolytic dose; concentration for 10% hemolysis) (Erythrocytes): >100/>100^§ µM; HD50 (hemolytic dose; concentration for 50% hemolysis) (Erythrocytes): >100/>100^§ µM; E. coli ATCC 35218 MIC (E. coli ATCC 35218 [5]): 12.5 µM
6 | CC[C@H](C)N(CC(N)=O)C(=O)CN(C(=O)CN(CCCCN)C(=O)CN(C(=O)CN(C(=O)CN(CCCCN)C(=O)CN(C(=O)CN(C(=O)CN(CCCCN)C(=O)CN(C(=O)CN(C(=O)CNCCCCN)[C@@H](C)CC)[C@@H](C)CC)[C@@H](C)CC)[C@@H](C)CC)[C@@H](C)CC)[C@@H](C)CC)[C@@H](C)CC [compound 2] (H-[Nlys][N(1S-Me-propyl)Gly][N(1S-Me-propyl)Gly][Nlys][N(1S-Me-propyl)Gly][N(1S-Me-propyl)Gly][Nlys][N(1S-Me-propyl)Gly][N(1S-Me-propyl)Gly][Nlys][N(1S-Me-propyl)Gly][N(1S-Me-propyl)Gly]-NH2) | 100 % of control | 100 % of control | 52.4% | >145^§ µg | – | did not cause aggregation | Activity in bioluminescence kinetics assay (in words) [2]: completely ineffective; SEM: Bacterial count after 10 µM treatment (% of control) (E. coli ATCC 35218 [6]): 100 % of control; E. coli ATCC 35218 MIC (E. coli ATCC 35218 [5]; listed as peptoid 2): > 100 µM
7 | CC[C@H](C)[C@H](NC(=O)CN)C(=O)NCC(=O)N[C@@H](C)C(=O)N[C@H](C(=O)N[C@@H](CC(C)C)C(=O)N[C@@H](CCCCN)C(=O)N[C@H](C(=O)N[C@@H](CC(C)C)C(=O)N[C@H](C(=O)N[C@H](C(=O)NCC(=O)N[C@@H](CC(C)C)C(=O)N1CCC[C@H]1C(=O)N[C@@H](C)C(=O)N[C@@H](CC(C)C)C(=O)N[C@H](C(=O)N[C@@H](CO)C(=O)N[C@@H](Cc1c[nH]c2ccccc12)C(=O)N[C@H](C(=O)N[C@@H](CCCCN)C(=O)N[C@@H](CCCNC(=N)N)C(=O)N[C@@H](CCCCN)C(=O)N[C@@H](CCCNC(=N)N)C(=O)N[C@@H](CCC(N)=O)C(=O)N[C@@H](CCC(N)=O)C(N)=O)[C@@H](C)CC)[C@@H](C)CC)[C@@H](C)O)[C@@H](C)O)C(C)C)C(C)C [melittin, reference compound] | – | – | – | – | – | – | E. coli ATCC 35218 MIC (E. coli ATCC 35218 [5]): 12.5 µM
8 | CN(C)[C@@H]1C(O)=C(C(N)=O)C(=O)[C@@]2(O)C(O)=C3C(=O)c4c(O)cccc4[C@@](C)(O)[C@H]3C[C@@H]12 [tetracycline] | – | – | – | – | did not kill bacteria | no aggregation | Decrease in bioluminescence at 2 h [2, 7]: ~ 97%
9 | oligomycin A | – | – | – | – | did not kill bacteria | no aggregation | Activity in bioluminescence kinetics assay (in words) [2]: inactive
